Data reported in PubChem BioAssay AID1963843 (Molecular Pharmacology Branch, DTP, NCI, 2024).

Tested on: 616215-338-R-J1-PDC complex spheroid viability
Experiment: Anticancer human tumor 616215-338-R-J1-PDC patient-derived colon adenocarcinoma cell line growth inhibition [POLQ]
Conditions: for IC50: curve of first compound; for viability, T/C: stronger effect = lower value
Summary of the method: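 Patient-derived tumour cells were co-cultured with HUVEC and mesenchymal stem cells as multicellular spheroids at 37 °C. They were treated with POLQ inhibitors (novobiocin, ART-558, RP6685) alone or combined with other agents. Top concentrations were at or near clinical Cmax (otherwise 10 microM; SN-38 at 1 microM), decreasing in half-log steps.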
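Note: spheroids exposed to compounds for one week before readout.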
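Throughout, for viability, T/C: percent viability relative to DMSO vehicle wells taken as 100%.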

## CCCS(=O)(=O)Nc1ccc(F)c(C(=O)c2c[nH]c3ncc(-c4ccc(Cl)cc4)cc23)c1F + Nc1ccc(C#CCN(C(=O)Cc2ncc(C(F)(F)F)cc2C(F)(F)F)c2ccc(F)cc2)nn1
Second compound 0.0316 µM
  IC50: 6.35 µM
Second compound 0.1 µM
  IC50: 6.1 µM
Second compound 0.316 µM
  IC50: 6.23 µM
Second compound 1 µM
  IC50: 6.15 µM
Second compound 3.16 µM
  IC50: 6.14 µM
Second compound 10 µM
  IC50: 5.68 µM
Second compound 0.0316 µM, first compound 0.0316 µM
  viability, T/C: 107%
Second compound 0.0316 µM, first compound 0.1 µM
  viability, T/C: 109%
Second compound 0.0316 µM, first compound 0.316 µM
  viability, T/C: 105%
Second compound 0.0316 µM, first compound 1 µM
  viability, T/C: 110%
Second compound 0.0316 µM, first compound 3.16 µM
  viability, T/C: 114%
Second compound 0.0316 µM, first compound 10 µM
  viability, T/C: 11.4%
Second compound 0.1 µM, first compound 0.0316 µM
  viability, T/C: 107%
Second compound 0.1 µM, first compound 0.1 µM
  viability, T/C: 111%
Second compound 0.1 µM, first compound 0.316 µM
  viability, T/C: 110%
Second compound 0.1 µM, first compound 1 µM
  viability, T/C: 109%
Second compound 0.1 µM, first compound 3.16 µM
  viability, T/C: 101%
Second compound 0.1 µM, first compound 10 µM
  viability, T/C: 11.5%
Second compound 0.316 µM, first compound 0.0316 µM
  viability, T/C: 101%
Second compound 0.316 µM, first compound 0.1 µM
  viability, T/C: 104%
Second compound 0.316 µM, first compound 0.316 µM
  viability, T/C: 106%
Second compound 0.316 µM, first compound 1 µM
  viability, T/C: 105%
Second compound 0.316 µM, first compound 3.16 µM
  viability, T/C: 102%
Second compound 0.316 µM, first compound 10 µM
  viability, T/C: 13.8%
Second compound 1 µM, first compound 0.0316 µM
  viability, T/C: 112%
Second compound 1 µM, first compound 0.1 µM
  viability, T/C: 114%
Second compound 1 µM, first compound 0.316 µM
  viability, T/C: 101%
Second compound 1 µM, first compound 1 µM
  viability, T/C: 111%
Second compound 1 µM, first compound 3.16 µM
  viability, T/C: 102%
Second compound 1 µM, first compound 10 µM
  viability, T/C: 11.9%
Second compound 3.16 µM, first compound 0.0316 µM
  viability, T/C: 111%
Second compound 3.16 µM, first compound 0.1 µM
  viability, T/C: 103%
Second compound 3.16 µM, first compound 0.316 µM
  viability, T/C: 107%
Second compound 3.16 µM, first compound 1 µM
  viability, T/C: 102%
Second compound 3.16 µM, first compound 3.16 µM
  viability, T/C: 100%
Second compound 3.16 µM, first compound 10 µM
  viability, T/C: 13%
Second compound 10 µM, first compound 0.0316 µM
  viability, T/C: 109%
Second compound 10 µM, first compound 0.1 µM
  viability, T/C: 86.3%
Second compound 10 µM, first compound 0.316 µM
  viability, T/C: 101%
Second compound 10 µM, first compound 1 µM
  viability, T/C: 94.4%
Second compound 10 µM, first compound 3.16 µM
  viability, T/C: 92.3%
Second compound 10 µM, first compound 10 µM
  viability, T/C: 9.03%
